Results reported in US9663513B2, “Pyrimidine PDE10 inhibitors” (Merck Sharp & Dohme Corp., priority 2012, dated 2017).

These compounds were tested against human PDE10A2 (Homo sapiens (Human), UniProt Q9Y233) (assay: PDE10 fluorescence polarization (IMAP FP) inhibition assay). Conditions: human PDE10A2 from transfected AD293 cells; FAM-labeled cAMP 50 nM; apparent inhibition constant; read-out: PDE10A Ki.
Format: biochemical
Summary of the method: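 Cytoplasmic lysate of AD293 cells transiently expressing human PDE10A2 (enzyme level giving 20% conversion) incubated with 50 nM FAM-cAMP in pH 7.2 Tris/MgCl2 buffer, 30 min at room temperature. IMAP binding solution added, FP read after ≥1 h; 10-point 3-fold compound titrations fitted to a four-parameter equation.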

human PDE10A2, sequence (Q9Y233 267-1055): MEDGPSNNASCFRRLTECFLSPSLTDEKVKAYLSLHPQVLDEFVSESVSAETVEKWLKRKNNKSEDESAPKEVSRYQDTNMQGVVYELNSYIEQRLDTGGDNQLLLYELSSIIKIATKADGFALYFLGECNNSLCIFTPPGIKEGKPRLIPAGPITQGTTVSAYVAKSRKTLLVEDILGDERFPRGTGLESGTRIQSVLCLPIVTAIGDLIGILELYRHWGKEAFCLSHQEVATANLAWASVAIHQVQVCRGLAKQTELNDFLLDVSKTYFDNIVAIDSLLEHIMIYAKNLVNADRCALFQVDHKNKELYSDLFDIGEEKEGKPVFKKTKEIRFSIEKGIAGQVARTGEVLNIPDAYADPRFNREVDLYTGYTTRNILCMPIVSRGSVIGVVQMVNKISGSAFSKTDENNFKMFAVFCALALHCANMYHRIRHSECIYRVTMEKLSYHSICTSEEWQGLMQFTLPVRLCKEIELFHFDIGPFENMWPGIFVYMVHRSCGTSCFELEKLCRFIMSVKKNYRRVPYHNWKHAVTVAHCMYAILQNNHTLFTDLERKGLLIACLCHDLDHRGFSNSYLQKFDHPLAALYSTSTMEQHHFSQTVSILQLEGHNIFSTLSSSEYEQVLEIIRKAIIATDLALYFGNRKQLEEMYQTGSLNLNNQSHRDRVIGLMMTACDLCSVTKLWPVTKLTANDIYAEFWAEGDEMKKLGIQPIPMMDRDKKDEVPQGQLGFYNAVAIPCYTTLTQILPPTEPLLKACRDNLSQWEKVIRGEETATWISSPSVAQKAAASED

| SMILES | Ki |
| --- | --- |
| COc1ccc([C@H]2C[C@@H]2COc2nc(C)ncc2-c2cc(=O)[nH][nH]2)nc1 [Example 241, 5-(4-(((1S,2S)-2-(5-methoxypyridin-2-yl)cyclopropyl)methoxy)-2-methylpyrimidin-5-yl)-1,2-dihydropyrazol-3-one] | 0.9 nM |
| Cc1cccc([C@H]2C[C@@H]2COc2nc(C)ncc2C2CCC(=O)CC2)n1 [Example 187, 4-(2-methyl-4-(((1S,2S)-2-(6-methylpyridin-2-yl)cyclopropyl)methoxy)pyrimidin-5-yl)cyclohexanone] | 18.6 nM |
| Cc1ncc(-c2ncccc2F)c(OC[C@H]2C[C@@H]2c2ccc3ccccc3n2)n1 [Example 127, 2-((1S,2S)-2-((5-(3-fluoropyridin-2-yl)-2-methylpyrimidin-4-yloxy)methyl)cyclopropyl)quinoline] | 0.51 nM |
| Cc1ccc([C@H]2C[C@@H]2COc2nc(C)ncc2-c2ccc(C(C)O)nc2)nc1 (stereo partly drawn) [Example 141, 1-(5-(2-methyl-4-(((1S,2S)-2-(5-methylpyridin-2-yl)cyclopropyl)methoxy)pyrimidin-5-yl)pyridin-2-yl)ethanol] | 0.24 nM |
| COc1ccc([C@H]2C[C@@H]2COc2nc(C)ncc2-c2ccc(OCC3CC3)nc2)nc1 [Example 72, 5-(6-(cyclopropylmethoxy)pyridin-3-yl)-4-(((1S,2S)-2-(5-methoxypyridin-2-yl)cyclopropyl)methoxy)-2-methylpyrimidine] | 0.5 nM |
| COc1ccc([C@H]2C[C@@H]2COc2nc(C)ncc2C2=CCOCC2)nc1 [Example 115, 5-(3,6-dihydro-2H-pyran-4-yl)-4-(((1S,2S)-2-(5-methoxypyridin-2-yl)cyclopropyl)methoxy)-2-methylpyrimidine] | 0.76 nM |
| Cc1ncc(-c2cnc3[nH]ncc3c2)c(OC[C@H]2C[C@@H]2c2ccc3ccccc3n2)n1 (single isomer, unassigned) [Example 151] | 0.02 nM |
| Cc1ncc(-c2ccc3nccn3c2)c(OC[C@H]2C[C@@H]2c2ccc3ccccc3n2)n1 [Example 136, 2-((1S,2S)-2-((5-(imidazo[1,2-a]pyridin-6-yl)-2-methylpyrimidin-4-yloxy)methyl)cyclopropyl)quinoline] | 0.04 nM |
| Cc1ccnc([C@H]2C[C@@H]2COc2nc(C)ncc2C2CCC3(CC2)OCCO3)c1 [Example 201, 2-methyl-4-(((1S,2S)-2-(4-methylpyridin-2-yl)cyclopropyl)methoxy)-5-(1,4-dioxaspiro[4.5]decan-8-yl)pyrimidine] | 17.1 nM |
| COc1ccc([C@H]2C[C@@H]2COc2nc(C)ncc2C2CCCC(=O)C2)nc1 (stereo partly drawn) [Example 207, 3-(4-(((1S,2S)-2-(5-Methoxypyridin-2-yl)cyclopropyl)methoxy)-2-methylpyrimidin-5-yl)cyclohexanone] | 0.48 nM |
| COc1ccc([C@H]2C[C@@H]2COc2nc(C)ncc2-c2ccc(C#N)n2C)nc1 [Example 109, 5-(4-(((1S,2S)-2-(5-methoxypyridin-2-yl)cyclopropyl)methoxy)-2-methylpyrimidin-5-yl)-1-methyl-1H-pyrrole-2-carbonitrile] | 0.94 nM |
| Cc1ncc(-c2ccncc2)c(OC[C@H]2C[C@@H]2c2ccc3ccccc3n2)n1 (single isomer, unassigned) [Example 27] | 0.93 nM |
| COc1ccc([C@H]2C[C@@H]2COc2nc(C)ncc2-c2ccc(Br)cn2)nc1 [Example 86, 5-(5-bromopyridin-2-yl)-4-(((1S,2S)-2-(5-methoxypyridin-2-yl)cyclopropyl)methoxy)-2-methylpyrimidine] | 11.6 nM |
| Cc1ccc([C@H]2C[C@@H]2COc2nc(C)ncc2[C@H]2CC[C@@H](C(C)(C)O)CC2)nc1 [Example 221, (cis)2-(4-(2-methyl-4-(((1S,2S)-2-(5-methylpyridin-2-yl)cyclopropyl)methoxy)pyrimidin-5-yl)cyclohexyl)propan-2-ol] | 12.6 nM |
| Cc1ncc(-c2ccc(C(C)O)cc2)c(OC[C@H]2C[C@@H]2c2ccccn2)n1 (stereo partly drawn) [Example 122, 1-(4-(2-methyl-4-(((1S,2S)-2-(pyridin-2-yl)cyclopropyl)methoxy)pyrimidin-5-yl)phenyl)ethanol] | 2.85 nM |
| CCC(O)c1ccc(-c2cnc(C)nc2OC[C@H]2C[C@@H]2c2ccc(C)cn2)cn1 (stereo partly drawn) [Example 143, 1-(5-(2-methyl-4-(((1S,2S)-2-(5-methylpyridin-2-yl)cyclopropyl)methoxy)pyrimidin-5-yl)pyridin-2-yl)propan-1-ol] | 0.16 nM |
| COc1ccc([C@H]2C[C@@H]2COc2nc(C)ncc2-c2nnn(C(F)F)n2)nc1 [Example 237, 5-(2-(difluoromethyl)-2H-tetrazol-5-yl)-4-(((1S,2S)-2-(5-methoxypyridin-2-yl)cyclopropyl)methoxy)-2-methylpyrimidine] | 32.9 nM |
| Cc1ncc(C2CCC3(CC2)OCCO3)c(OC[C@@H](C)Cc2ccc3ccccc3n2)n1 [Example 204, 2-((2S)-2-methyl-3-(2-methyl-5-(1,4-dioxaspiro[4.5]decan-8-yl)pyrimidin-4 yloxy)propyl)quinoline] | 0.73 nM |
| Cc1ccc([C@H]2C[C@@H]2COc2nc(C)ncc2C2=CC(=O)OC2)nc1 [Example 60, 4-(2-methyl-4-(((1S,2S)-2-(5-methylpyridin-2-yl)cyclopropyl)methoxy)pyrimidin-5-yl)furan-2(5H)-one] | 13.9 nM |
| COc1ccc([C@H]2C[C@@H]2COc2nc(C)ncc2C2CCC(=O)C2)nc1 (stereo partly drawn) [Example 78] | 8.35 nM |
| Cc1ccc([C@H]2C[C@@H]2COc2nc(C)ncc2-c2ccncc2C)nc1 [Example 147, 2-methyl-4-(((1S,2S)-2-(5-methylpyridin-2-yl)cyclopropyl)methoxy)-5-(3-methylpyridin-4-yl)pyrimidine] | 0.4 nM |
| Cc1ccc([C@H]2C[C@@H]2COc2nc(C)ncc2-c2cccc(OC(F)(F)F)c2)nc1 [Example 12, 2-methyl-4-(((1S,2S)-2-(5-methylpyridin-2-yl)cyclopropyl)methoxy)-5-(3-(trifluoromethoxy)phenyl)pyrimidine] | 1.11 nM |
| COc1ccc([C@H]2C[C@@H]2COc2nc(C)ncc2-c2ccc(-c3nnn(C(F)F)n3)cc2)nc1 [Example 227, 5-(4-(2-(difluoromethyl)-2H-tetrazol-5-yl)phenyl)-4-(((1S,2S)-2-(5-methoxypyridin-2-yl)cyclopropyl)methoxy)-2-methylpyrimidine] | 3.3 nM |
| COc1ccc([C@H]2C[C@@H]2COc2nc(C)ncc2-c2ccc(C(=O)NCC(F)(F)F)nc2)nc1 [Example 104, 5-(4-(((1S,2S)-2-(5-methoxypyridin-2-yl)cyclopropyl)methoxy)-2-methylpyrimidin-5-yl)-N-(2,2,2-trifluoroethyl)picolinamide] | 0.67 nM |
| COc1ccc([C@H]2C[C@@H]2COc2nc(C)ncc2-c2ccc(-c3ncno3)cc2)nc1 [Example 93, 5-(4-(4-(((1S,2S)-2-(5-methoxypyridin-2-yl)cyclopropyl)methoxy)-2-methylpyrimidin-5-yl)phenyl)-1,2,4-oxadiazole] | 0.15 nM |
| Cc1ncc(-c2ccc(C(C)O)cc2)c(OC[C@H]2C[C@@H]2c2ccc3ccccc3n2)n1 (single isomer, unassigned) [Example 34] | 0.01 nM |
| COc1ccc([C@H]2C[C@@H]2COc2nc(C)ncc2-c2ccc(-c3nn[nH]n3)nc2)nc1 [Example 229, 5-(6-(2H-tetrazol-5-yl)pyridin-3-yl)-4-(((1S,2S)-2-(5-methoxypyridin-2-yl)cyclopropyl)methoxy)-2-methylpyrimidine] | 0.13 nM |
